Earlier results as cited in patent US20050065094A1, “Use of telmisartan for the prevention and treatment of vascular headache” (Boehringer Ingelheim International GmbH, priority 2003, published 2005).

Tests used:
[1] = tested on: patients suffering from migraine; settings: placebo-controlled crossover
[2] = tested on: patients having mild/moderate hypertension; settings: placebo-controlled

CCOc1nc2cccc(C(=O)O)c2n1Cc1ccc(-c2ccccc2-c2nnn[nH]2)cc1 [candesartan]
tolerability profile [1]: good tolerability profile

CCCCC1=NC2(CCCC2)C(=O)N1Cc1ccc(-c2ccccc2-c2nnn[nH]2)cc1 [irbesartan]
incidence of headache [2]: significant reduction in the incidence of headache
